Results: PubChem BioAssay (NCI)
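Grown in 96-well plates, cells were treated for 48 hours with each compound at five concentrations. Insufficient inhibition: endpoint recorded as highest concentration tested. TGI: total growth inhibition.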

What was measured:
Test in all cases: NCI tumour cell line growth inhibition, 48 h
SF-539 CNS = system: SF-539 CNS
IGROV1 ovarian = system: IGROV1 ovarian
OVCAR-4 ovarian = system: OVCAR-4 ovarian
SNB-19 CNS = system: SNB-19 CNS
SR leukemia = system: SR leukemia
NCI-H23 lung = system: NCI-H23 lung
K-562 leukemia = system: K-562 leukemia
T-47D breast = system: T-47D breast
ACHN renal = system: ACHN renal
PC-3 prostate = system: PC-3 prostate
CCRF-CEM leukemia = system: CCRF-CEM leukemia
M14 melanoma = system: M14 melanoma
TK-10 renal = system: TK-10 renal
SK-OV-3 ovarian = system: SK-OV-3 ovarian
UACC-257 melanoma = system: UACC-257 melanoma
HS 578T breast = system: HS 578T breast
EKVX NSCLC = system: EKVX NSCLC
MOLT-4 leukemia = system: MOLT-4 leukemia

Structure (SMILES) | TGI (SF-539 CNS) [µM] | TGI (IGROV1 ovarian) [µM] | TGI (OVCAR-4 ovarian) [µM] | TGI (SNB-19 CNS) [µM] | TGI (SR leukemia) [µM] | TGI (NCI-H23 lung) [µM] | TGI (K-562 leukemia) [µM] | TGI (T-47D breast) [µM] | TGI (ACHN renal) [µM] | TGI (PC-3 prostate) [µM] | TGI (CCRF-CEM leukemia) [µM] | TGI (M14 melanoma) [µM] | TGI (TK-10 renal) [µM] | TGI (SK-OV-3 ovarian) [µM] | TGI (UACC-257 melanoma) [µM] | TGI (HS 578T breast) [µM] | TGI (EKVX NSCLC) [µM] | TGI (MOLT-4 leukemia) [µM]
O=C(CNc1ccccc1[N+](=O)[O-])Nn1c(-c2ccccc2)nc2ccccc2c1=O | 44.5 | 34.8 | 32.1 | 47.8 | 71.7 | 76.5 | 41.9 | 39.2 | 56.9 | 61.5 | 43.6 | 38.1 | > 10 | > 100 | > 10 | > 100 | 36.2 | 49.8
Cc1ccc(/C=N/Nc2ccc3ccccc3n2)s1 | > 100 | 53.8 | > 100 | 59 | > 100 | > 100 | > 100 | > 100 | 39.9 | 31.5 | > 100 | 58.8 | > 100 | > 100 | > 100 | > 100 | 32.2 | > 100
COC(=O)c1cnc(Cl)cn1 | > 100 | 97.1 | 45.5 | > 100 | > 100 | 54 | > 100 | > 100 | > 100 | > 100 | > 100 | > 100 | > 100 | > 100 | > 100 | > 100 | > 100 | > 100
CCCCON1C[C@H](OC(C)=O)C(OC(C)=O)[C@H](OC(C)=O)C1 (stereo partly drawn) | > 100 | > 100 | > 100 | > 100 | > 100 | > 100 | > 100 | > 100 | > 100 | > 100 | > 100 | > 100 | > 100 | > 100 | > 100 | > 100 | > 100 | > 100
CN(c1ccccc1Cl)S(=O)(=O)c1ccc([N+](=O)[O-])cc1 | > 100 | > 100 | > 100 | > 100 | > 100 | > 100 | > 100 | > 100 | > 100 | > 100 | > 100 | > 100 | > 100 | > 100 | > 100 | > 100 | > 100 | > 100
NC1=CN2c3ccccc3N(CC(=O)O)C2C=C1 (stereo not drawn) | > 100 | > 100 | > 100 | > 100 | > 100 | > 100 | > 100 | > 100 | > 100 | > 100 | > 100 | > 100 | > 100 | > 100 | > 100 | > 100 | > 100 | > 100
O=C(N/N=C1/C(=O)c2c3ccccc3cc3cccc1c23)c1ccccc1 | > 100 | 85.5 | 44.2 | > 100 | > 100 | > 100 | > 100 | 42 | > 67.4 | > 84.1 | > 100 | > 100 | 78.5 | 75 | > 100 | > 73.2 | > 100 | > 100
CCOC(=O)C(NC(=O)c1ccccc1)(N1CCOCC1)C(F)(F)F (stereo not drawn) | > 100 | > 100 | > 100 | > 100 | > 100 | > 100 | > 100 | > 100 | > 100 | > 100 | > 100 | > 100 | > 100 | > 100 | > 100 | > 100 | > 100 | > 100
CCN(CC)CCNC(=O)c1cn2c(ccc3sc4ccccc4c(=O)c32)n1 | 24.9 | 21.3 | 22.8 | 27.5 | 26.6 | 28.4 | 36.8 | 30 | 18.6 | 23.4 | 25.3 | 29 | 19.1 | 25.5 | 30.1 | 34.6 | 35.3 | 11.9
Clc1ccc(C2Nc3ccccc3C3=NCCN32)cc1 (stereo not drawn) | 30.6 | 49.2 | > 100 | 94.9 | 59.2 | 55.4 | 46.2 | 46.9 | > 100 | > 100 | > 100 | 30.6 | 39.5 | > 100 | 36 | > 100 | 93.7 | > 100
COc1cc2c(=O)cnoc2cc1O | > 100 | > 100 | > 100 | > 100 | > 100 | > 100 | > 100 | > 100 | > 100 | > 100 | > 100 | > 100 | > 100 | > 100 | > 100 | > 100 | > 100 | > 100
